Holding throughout (assay): NCI anticancer screen, dose series, 48 h
Experiment [1] relates to SNB-75 CNS.
Experiment [2] relates to MALME-3M melanoma.
Experiment [3] has as its system SNB-19 CNS.
In experiment [4] the test system is SF-539 CNS.
Experiment [5] concerns K-562 leukemia.
Experiment [6] concerns SN12C renal.
For experiment [7], the system named is KM12 colon.
Experiment [8] deals with M14 melanoma.
The subject of experiment [9] is CAKI-1 renal.
The test system of experiment [10] is EKVX NSCLC.

SMILES strings stand for the structures.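 Assay format: 96-well plates, 48-hour exposure. TGI is the concentration that stops growth completely.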 A value given as a limit tells only on which side of the number the result lay.

Turning to `CSc1nc2c(=O)n(-c3ccccc3)c(=S)n(-c3ccccc3)c2s1`, the TGI in experiment [1] was 91.7 µM; in [2] it was above 100 µM; in experiment [3] it was 64.7 µM; in experiment [4], above 100 µM; in experiment [5] it was above 100 µM; in [6] it was above 100 µM. Also, the TGI in experiment [7] and in experiment [8] was above 100 µM each time.

As to `CC(=O)NC(Cc1ccc(OP(=O)(OCc2ccc([N+](=O)[O-])o2)N(C)CCCCCl)cc1)C(=O)NC(C)c1ccc(OCC2CCCCC2)c(C(N)=O)c1` (stereo not given), the TGI was 5.65 µM in experiment [2]; 14.9 µM in [3]; 4.35 µM in experiment [4]; above 100 µM in experiment [5]; above 100 µM in experiment [9]; 6.53 µM in experiment [6]. The TGI was found to be 8.71 µM in [7] and 5.49 µM in experiment [8].

As for `Oc1cccc(-c2cn3cc(C(F)(F)F)ccc3n2)c1`, the TGI in experiment [2] was above 100 µM; in experiment [3] it was above 100 µM; in experiment [5] it was above 100 µM; in [9], above 100 µM; in [10], 70.9 µM; in [6], above 100 µM. The TGI in experiment [7] and in experiment [8] was above 100 µM each time.

In the case of `c1ccc(N=C2SC3=NCCN3C2=Nc2ccccc2)cc1`, the TGI in experiment [1] was 43.3 µM; in experiment [3], 32.5 µM; in experiment [5] it was above 100 µM; in experiment [9], 38.2 µM; in experiment [6], 70 µM; in [7] it was 29.7 µM. Also, the TGI in experiment [8] was found to be 37.8 µM.

As to `CC(Cc1ccccc1)NC1=NCCO1` (stereo not given), the TGI in [1] is above 100 µM; in experiment [3] it was above 100 µM; in [4] it was 30.3 µM; in experiment [9], above 100 µM; in [10] it was above 100 µM; in experiment [6], 53.3 µM.

On to `O=C1c2ccccc2-c2nc(/C=C/c3ccccc3)cc3c2c1nc1ccccc13`, for which the TGI was 47.7 µM in experiment [1]; above 100 µM in experiment [3]; above 100 µM in [4]; 32.2 µM in [5]; above 100 µM in [9]; above 100 µM in [10]. Also, the TGI in experiment [6] is above 100 µM; in [7] it was 68.4 µM; in [8], above 100 µM.

For `Cc1cc2nc(N3C(=O)/C(=C/c4ccc(Cl)cc4)N=C3c3ccccc3)sc2cc1C`, the TGI is 63.9 µM in experiment [1]; above 100 µM in experiment [3]; above 100 µM in [4]; above 100 µM in experiment [5]; above 100 µM in experiment [9]; 91.2 µM in [10]. Further, the TGI in [6] is 87.6 µM; in [7], 92.3 µM; in experiment [8] it was above 100 µM.

For `Cn1c(=O)c2c(nc(Nc3ccc(Cl)cc3)n3c(=O)n(-c4ccccc4)c(=O)n23)n(C)c1=O`, the TGI in [1], in [3], in experiment [4], in [5], in experiment [9] and in experiment [10] was above 100 µM throughout. Besides, the TGI in experiment [6], in experiment [7] and in experiment [8] was above 100 µM each time.

Take `O=C1CCCC2=C1CC1=C(CCCC1=O)N2c1ccccc1`: the TGI in experiment [1], in [3], in [4], in [5], in experiment [9] and in experiment [10] was above 100 µM each time. The TGI in [6], in [7] and in experiment [8] was above 100 µM in each case.

Turning to `CC(C)OC(=O)[C@@H](O)[C@H](CO)C1=CC([Si](C)(C)c2ccccc2)=CON1`, the TGI was 69.2 µM in experiment [1]; above 100 µM in experiment [3]; above 100 µM in experiment [4]; above 100 µM in experiment [5]; above 100 µM in [9]; above 100 µM in [10]. The TGI in experiment [7] and in experiment [8] was above 100 µM throughout.

`c1ccc(-c2cc(-c3cccs3)c(-c3cccs3)o2)cc1`: the TGI in [1], in experiment [3], in experiment [4], in [5], in experiment [9] and in [10] was above 100 µM each time. Further, the TGI in experiment [6], in [7] and in [8] was above 100 µM each time.

For the compound `NC1CC(=O)c2sccc21` (stereo not given), the TGI in [1], in [3], in experiment [4], in experiment [5], in experiment [9] and in [10] was above 100 µM throughout. In addition, the TGI in [6], in experiment [7] and in [8] was above 100 µM each time.

In the case of `CC(NC(C#N)CC12CC3CC(CC(C3)C1)C2)c1ccccc1` (stereo not given), the TGI in [2], in [3], in experiment [5], in experiment [9], in [10] and in experiment [8] was above 100 µM each time.

The values above are taken from PubChem BioAssay (NCI).
